The values below come from PMC11597089, “Kratom Alkaloids: A Blood–Brain Barrier Specific Membrane Permeability Assay-Guided Isolation and Cyclodextrin Complexation Study” (Molecules, 2024).

Series [1] in a line: ACE complex stability, S-β-CD. Format: physicochemical. The following applies: sulfated-β-CD DS~13, 30 mM phosphate buffer pH 7.4, 25 °C. The method, then: (§1) To investigate the CD complexation behavior of the four kratom alkaloids, we aimed to develop an ACE method for a systematic comparative study. […] To ensure sufficient buffer capacity and to avoid excessive current and Joule heat generation, the buffer concentration was set to 30 mM, and the applied voltage was 15 kV.
(§2) The ACE experiments were performed by using Agilent 7100 and HP^3DCE instruments (Agilent Technologies, Waldbronn, Germany). Untreated fused silica capillaries (total length of 48.5 cm, effective length of 40 cm, inner diameter of 50 μm) were purchased from Agilent Technologies. The new capillaries were conditioned with a 1 M NaOH wash for 1 h, followed by a 30 min wash each with 0.1 M NaOH and purified water. Prior to all runs, the capillary was preconditioned by rinsing with background electrolyte for 3 min. During the measurements, 30 mM phosphate buffer at pH 7.4 (30 mM Na2HPO4-NaOH) was used. The background electrolyte contained CDs at various concentrations. […] The electropherograms were recorded at four wavelengths (200 nm, 210 nm, 215 nm, and 220 nm), and the data were evaluated at 215 nm. […] The measurements were evaluated using Origin and CEval software (v. 0.6i3). […]

Series [2] can be described thus: ACE complex stability, S-γ-CD. The following applies: sulfated-γ-CD DS~14, 30 mM phosphate buffer pH 7.4, 25 °C. The format is physicochemical. The method, then: as §1, §2
The nature of series [3]: phase-solubility study, RAME-β-CD. Format: physicochemical. The following applies: 30 mM phosphate buffer pH 7.4, room temperature. Here is the method: (§3) Based on our ACE measurements, the promising CDs were selected for phase-solubility studies, along with the most widely used CD excipients, to investigate the effect of CD type and its concentration on mitragynine solubility. The experiments were conducted under conditions similar to those in the ACE measurements, applying 30 mM phosphate buffer (pH 7.4) and room temperature.
(§4) UV spectra and chromatograms were recorded at 200–400 nm, and the chromatogram obtained at 226 nm was used for quantitative analyses.
(§5) Solubility measurements were performed according to Higuchi and Connors. To each 1 mg mitragynine sample, the selected cyclodextrins were added. The final concentration of the CDs was in the range of 0–1 (m/v) %. Suspensions were shaken at room temperature for 24 h and filtered using 0.22 μm filters. The mitragynine concentration in the samples was determined by the above-described UHPLC-UV method. The solubility diagrams were constructed, and the stability constant (Kstab) and complexation efficacy (CE) were calculated using the following formulas:(5) Kstab=slope/S0(1−slope) (6) CE=slope/1−slope where S0 is the intrinsic solubility of a poorly soluble drug. The experiments were performed in a 30 mM phosphate buffer (pH 7.4).

Series [4] in a line: phase-solubility study, CM-β-CD. Format: physicochemical. Conditions: 30 mM phosphate buffer pH 7.4, room temperature. Here is the method: as §3, §4, §5
Series [5] in a line: phase-solubility study, Subetadex. Format: physicochemical. The following applies: 30 mM phosphate buffer pH 7.4, room temperature; for complexation efficacy (CE) with Subetadex: phase solubility, calculated from the linear part of the isotherm. The method, then: as §3
In the case of Subetadex, which had the highest solubility enhancement, an AN-type isotherm could be observed with a negative deviation from linearity, indicating a complex process: either the host ratio inside the complex increased, the solvent–solute interactions altered, or both contributed simultaneously.
as §4, §5

Series [6] can be described thus: phase-solubility study, SBE-β-CD DS~6.5. Format: physicochemical. Conditions: 30 mM phosphate buffer pH 7.4, room temperature. The method, then: as §3, §4, §5
Details of series [7]: method as in PMID 25793541. Conditions: at neutral pH; cited from earlier work.
Details of series [8]: method as in PMID 24841968. Conditions: after 2 h; cited from earlier work.
On the set-up of series [9]: method as in PMID 20454783. The following applies: rats, in words; cited from earlier work.

Consider `CC[C@H]1CN2CCc3c([nH]c4cccc(OC)c34)[C@@H]2C[C@@H]1/C(=C\OC)C(=O)OC` [Speciogynine, speciogynine], for which, in series [1], the “complex stability constant (Kstab) with S-β-CD” value amounted to 970 ± 80 M⁻¹.
With mitragynine, the “complex stability constant (Kstab) with S-γ-CD” value in series [2] amounted to 810 ± 75 M⁻¹. Further, in series [3] (24 h, CD 0–1 (m/v) %), the “Kstab with RAME-β-CD (phase solubility)” value is 60 M⁻¹. Moreover, the “complexation efficacy (CE) with RAME-β-CD” value in series [3] (phase solubility) is recorded as 0.0023. In addition, the “Kstab with CM-β-CD (phase solubility)” value in [4] (24 h, CD 0–1 (m/v) %) was 300 M⁻¹. The “complexation efficacy (CE) with CM-β-CD” value in series [4] (phase solubility) was determined as 0.0113. Besides, the “phase-solubility isotherm type with Subetadex” value in [5] is “AN-type”. Besides, the “Kstab with Subetadex (phase solubility)” value in series [5] (24 h, CD 0–1 (m/v) %) is 1730 M⁻¹. Besides, the “complexation efficacy (CE) with Subetadex” value is recorded as 0.0650 in series [5] and 0.065 in series [5] (listed as mitragynine). Further, in series [6] (24 h, CD 0–1 (m/v) %), the “Kstab with SBE-β-CD DS~6.5 (phase solubility)” value was 480 M⁻¹. The “complexation efficacy (CE) with SBE-β-CD DS~6.5” value in [6] (phase solubility) is reported as 0.0181. In [7], the aqueous solubility is 88 µg/mL. Besides, the “degraded under acidic conditions” value in series [8] is on record as “more than 26%”. Also, the oral bioavailability entry in [9] was “limited”.
